The text below walks through data of patent publication US8158628B2, “Sulfonylated 1,2,3,4-tetrahydropyrrolo[1,2-a]pyrazine compounds and their use as pharmaceuticals” (Gruenenthal GmbH, priority 2009, dated 2012).

This experiment concerns the target T1, B1R of the rat (Rattus norvegicus, UniProt P97583).
T1 construct: expressed in transfected cells; host or cells: CHO K1 cells (Chinese hamster ovary), stably transfected
T1 sequence (P97583 1-337): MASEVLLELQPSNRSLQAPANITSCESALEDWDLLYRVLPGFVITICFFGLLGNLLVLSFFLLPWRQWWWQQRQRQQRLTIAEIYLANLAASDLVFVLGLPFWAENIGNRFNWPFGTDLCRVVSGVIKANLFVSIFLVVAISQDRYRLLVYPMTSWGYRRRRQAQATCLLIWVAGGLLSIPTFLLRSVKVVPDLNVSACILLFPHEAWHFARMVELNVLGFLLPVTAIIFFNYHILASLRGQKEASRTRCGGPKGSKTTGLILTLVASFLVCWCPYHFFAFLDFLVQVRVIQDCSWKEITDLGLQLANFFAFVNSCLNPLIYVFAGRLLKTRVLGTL
Description: FLIPR Ca2+ functional assay, B1R antagonism, rat B1R in CHO K1 cells. In kind it is cell-based. As to conditions: test substance 10 μM; rB1R CHO K1 cells; agonist Des-Arg9 bradykinin at EC80; % of maximum achievable inhibition. A digest of the protocol: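 Stably transfected CHO K1 cells loaded with Fluo-4; Ca2+ fluorescence read on FLIPR (ex 488/em 540 nm). Compound preincubated 10-20 min, then agonist at EC80: Lys-Des-Arg9 bradykinin (human) or Des-Arg9 bradykinin (rat). % inhibition vs maximal inhibition; IC50 from concentration series, n=2-3, N>=2.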

By inhibition is commonly meant the change of the read-out against control, counted positive when it falls. As for `COc1ccc(CN2CCN(C(=O)CC3c4cccn4CCN3S(=O)(=O)c3ccccc3)CC2)cc1` (stereo not drawn) [Example 233, 2-[2-(Benzenesulfonyl)-1,2,3,4-tetrahydro-pyrrolo[1,2-a]pyrazin-1-yl]-1-[4-[(4-methoxyphenyl)-methyl]-piperazin-1-yl]-ethanone], the inhibition at 10 µM is 20.6%.

In the case of `O=C(CC1c2cccn2CCN1S(=O)(=O)c1ccccc1)N1CCN(Cc2ccccc2F)CC1` (stereo not drawn) [Example 234, 2-[2-(Benzenesulfonyl)-1,2,3,4-tetrahydro-pyrrolo[1,2-a]pyrazin-1-yl]-1-[4-[(2-fluorophenyl)-methyl]-piperazin-1-yl]-ethanone], the inhibition at 10 µM amounted to 17.3%.

As to `O=C(CC1c2cccn2CCN1S(=O)(=O)c1ccccc1)NCC1CCCN(Cc2ccccc2)C1` (stereo not drawn) [Example 235, 2-[2-(Benzenesulfonyl)-1,2,3,4-tetrahydro-pyrrolo[1,2-a]pyrazin-1-yl]-N-[(1-benzyl-piperidin-3-yl)-methyl]-acetamide], the inhibition at 10 µM was -14%.

Regarding `Cc1cc(C)c(CN2CCN(C(=O)CC3c4cccn4CCN3S(=O)(=O)c3cccc(C(F)(F)F)c3)CC2)c(C)c1` (stereo not drawn) [Example 236, 2-[2-[[3-(Trifluoromethyl)phenyl]sulfonyl]-1,2,3,4-tetrahydro-pyrrolo[1,2-a]pyrazin-1-yl]-1-[4-[(2,4,6-trimethyl-phenyl)-methyl]-piperazin-1-yl]-ethanone], the inhibition at 10 µM was determined as 9.23%.

On to `COc1ccc(N2CCN(C(=O)CC3c4cccn4CCN3S(=O)(=O)c3ccc(C(F)(F)F)cc3Cl)CC2)cc1` (stereo not drawn) [Example 237, 2-[2-[[2-Chloro-4-(trifluoromethyl)-phenyl]sulfonyl]-1,2,3,4-tetrahydro-pyrrolo[1,2-a]pyrazin-1-yl]-1-[4-(4-methoxyphenyl)-piperazin-1-yl]-ethanone], for which the inhibition at 10 µM amounted to 9.45%.

For the molecule `COc1cc(C)c(S(=O)(=O)N2CCn3cccc3C2CC(=O)N2CCN(c3ccc(Cl)c(Cl)c3)CC2)c(C)c1` (stereo not drawn) [Example 238, 1-[4-(3,4-Dichlorophenyl)-piperazin-1-yl]-2-[2-[(4-methoxy-2,6-dimethyl-phenyl)sulfonyl]-1,2,3,4-tetrahydro-pyrrolo[1,2-a]pyrazin-1-yl]-ethanone], the inhibition at 10 µM is 17.6%.

For the molecule `COc1cc(C)c(S(=O)(=O)N2CCn3cccc3C2CC(=O)N2CCN(Cc3c(C)cc(C)cc3C)CC2)c(C)c1` (stereo not drawn) [Example 239, 2-[2-[(4-Methoxy-2,6-dimethyl-phenyl)sulfonyl]-1,2,3,4-tetrahydro-pyrrolo[1,2-a]pyrazin-1-yl]-1-[4-[(2,4,6-trimethyl-phenyl)-methyl]-piperazin-1-yl]-ethanone], the inhibition at 10 µM is -8.74%.

Consider `COc1cc(C)c(S(=O)(=O)N2CCn3cccc3C2CC(=O)N2CCN(Cc3ccc(Cl)cc3)CC2)c(C)c1` (stereo not drawn) [Example 240, 1-[4-[(4-Chlorophenyl)-methyl]-piperazin-1-yl]-2-[2-[(4-methoxy-2,6-dimethyl-phenyl)sulfonyl]-1,2,3,4-tetrahydro-pyrrolo[1,2-a]pyrazin-1-yl]-ethanone], for which the inhibition at 10 µM was determined as 55.9%.

For `COc1cc(C)c(S(=O)(=O)N2CCn3cccc3C2CC(=O)N2CCN(Cc3ccc(C)cc3)CC2)c(C)c1` (stereo not drawn) [Example 241, 2-[2-[(4-Methoxy-2,6-dimethyl-phenyl)sulfonyl]-1,2,3,4-tetrahydro-pyrrolo[1,2-a]pyrazin-1-yl]-1-[4-(p-tolyl-methyl)-piperazin-1-yl]-ethanone], the inhibition at 10 µM was found to be 46.8%.

On to `COc1ccc(CN2CCN(C(=O)CC3c4cccn4CCN3S(=O)(=O)c3c(C)cc(OC)cc3C)CC2)cc1` (stereo not drawn) [Example 242, 2-[2-[(4-Methoxy-2,6-dimethyl-phenyl)sulfonyl]-1,2,3,4-tetrahydro-pyrrolo[1,2-a]pyrazin-1-yl]-1-[4-[(4-methoxyphenyl)-methyl]-piperazin-1-yl]-ethanone], for which the inhibition at 10 µM was found to be 8.4%.

For `COc1cc(C)c(S(=O)(=O)N2CCn3cccc3C2CC(=O)N2CCN(Cc3ccccc3F)CC2)c(C)c1` (stereo not drawn) [Example 243, 1-[4-[(2-Fluorophenyl)-methyl]-piperazin-1-yl]-2-[2-[(4-methoxy-2,6-dimethyl-phenyl)sulfonyl]-1,2,3,4-tetrahydro-pyrrolo[1,2-a]pyrazin-1-yl]-ethanone], the inhibition at 10 µM came out at 29.4%.

`COc1cc(C)c(S(=O)(=O)N2CCn3cccc3C2CC(=O)N2CCCCC2Cc2ccccn2)c(C)c1` (stereo not drawn) [Example 244, 2-[2-[(4-Methoxy-2,6-dimethyl-phenyl)sulfonyl]-1,2,3,4-tetrahydro-pyrrolo[1,2-a]pyrazin-1-yl]-1-[2-(pyridin-2-yl-methyl)-piperidin-1-yl]-ethanone]: the inhibition at 10 µM is -37.6%.

Turning to `COc1cc(C)c(S(=O)(=O)N2CCn3cccc3C2CC(=O)N2CCCCC2Cc2ccncc2)c(C)c1` (stereo not drawn) [Example 245, 2-[2-[(4-Methoxy-2,6-dimethyl-phenyl)sulfonyl]-1,2,3,4-tetrahydro-pyrrolo[1,2-a]pyrazin-1-yl]-1-[2-(pyridin-4-yl-methyl)-piperidin-1-yl]-ethanone], the inhibition at 10 µM is -21.5%.

With `COc1cc(C)c(S(=O)(=O)N2CCn3cccc3C2CC(=O)N2CCN(Cc3ccc4c(c3)OCO4)CC2)c(C)c1` (stereo not drawn) [Example 246, 1-[4-(1,3-Benzodioxol-5-yl-methyl)-piperazin-1-yl]-2-[2-[(4-methoxy-2,6-dimethyl-phenyl)sulfonyl]-1,2,3,4-tetrahydro-pyrrolo[1,2-a]pyrazin-1-yl]-ethanone], the inhibition at 10 µM came out at 6.85%.

With `COc1cc(C)c(S(=O)(=O)N2CCn3cccc3C2CC(=O)N2CCN(CCC#N)CC2)c(C)c1` (stereo not drawn) [Example 247, 3-[4-[2-[2-[(4-Methoxy-2,6-dimethyl-phenyl)sulfonyl]-1,2,3,4-tetrahydro-pyrrolo[1,2-a]pyrazin-1-yl]-acetyl]-piperazin-1-yl]-propionitrile], the inhibition at 10 µM was -27.4%.

Consider `COc1cc(C)c(S(=O)(=O)N2CCn3cccc3C2CC(=O)NCC2CCCN(Cc3ccccc3)C2)c(C)c1` (stereo not drawn) [Example 248, N-[(1-Benzyl-piperidin-3-yl)-methyl]-2-[2-[(4-methoxy-2,6-dimethyl-phenyl)sulfonyl]-1,2,3,4-tetrahydro-pyrrolo[1,2-a]pyrazin-1-yl]-acetamide], for which the inhibition at 10 µM is 84%.

With `Cc1cccc(Cl)c1S(=O)(=O)N1CCn2cccc2C1CC(=O)N1CCN(Cc2ccc(Cl)cc2)CC1` (stereo not drawn) [Example 249, 2-[2-[(2-Chloro-6-methyl-phenyl)sulfonyl]-1,2,3,4-tetrahydro-pyrrolo[1,2-a]pyrazin-1-yl]-1-[4-[(4-chlorophenyl)-methyl]-piperazin-1-yl]-ethanone], the inhibition at 10 µM was -12.6%.

As to `Cc1cccc(Cl)c1S(=O)(=O)N1CCn2cccc2C1CC(=O)N1CCCCC1Cc1ccccn1` (stereo not drawn) [Example 250, 2-[2-[(2-Chloro-6-methyl-phenyl)sulfonyl]-1,2,3,4-tetrahydro-pyrrolo[1,2-a]pyrazin-1-yl]-1-[2-(pyridin-2-yl-methyl)-piperidin-1-yl]-ethanone], the inhibition at 10 µM was -38%.

Take `Cc1cccc(Cl)c1S(=O)(=O)N1CCn2cccc2C1CC(=O)N1CCCCC1Cc1ccncc1` (stereo not drawn) [Example 251, 2-[2-[(2-Chloro-6-methyl-phenyl)sulfonyl]-1,2,3,4-tetrahydro-pyrrolo[1,2-a]pyrazin-1-yl]-1-[2-(pyridin-4-yl-methyl)-piperidin-1-yl]-ethanone]: the inhibition at 10 µM is -37.1%.

`Cc1cccc(Cl)c1S(=O)(=O)N1CCn2cccc2C1CC(=O)N1CCN(Cc2ccc3c(c2)OCO3)CC1` (stereo not drawn) [Example 252, 1-[4-(1,3-Benzodioxol-5-yl-methyl)-piperazin-1-yl]-2-[2-[(2-chloro-6-methyl-phenyl)sulfonyl]-1,2,3,4-tetrahydro-pyrrolo[1,2-a]pyrazin-1-yl]-ethanone]: the inhibition at 10 µM is -10.5%.

Take `Cc1cccc(Cl)c1S(=O)(=O)N1CCn2cccc2C1CC(=O)N1CCN(CCC#N)CC1` (stereo not drawn) [Example 253, 3-[4-[2-[2-[(2-Chloro-6-methyl-phenyl)sulfonyl]-1,2,3,4-tetrahydro-pyrrolo[1,2-a]pyrazin-1-yl]-acetyl]-piperazin-1-yl]-propionitrile]: the inhibition at 10 µM was -39.1%.

In the case of `O=C(CC1c2cccn2CCN1S(=O)(=O)c1ccc(C(F)(F)F)cc1Cl)NCC1CCCN(Cc2ccccc2)C1` (stereo not drawn) [Example 254, N-[(1-Benzyl-piperidin-3-yl)-methyl]-2-[2-[[2-chloro-4-(trifluoromethyl)-phenyl]sulfonyl]-1,2,3,4-tetrahydro-pyrrolo[1,2-a]pyrazin-1-yl]-acetamide], the inhibition at 10 µM was determined as 8.85%.

Regarding `COc1cc(C)c(S(=O)(=O)N2CCn3cccc3C2CC(=O)N2CCCCCC2c2ccc(N(C)C)cc2)c(C)c1` (stereo not drawn) [Example 255, 1-[2-(4-Dimethylaminophenyl)-azepan-1-yl]-2-[2-[(4-methoxy-2,6-dimethyl-phenyl)sulfonyl]-1,2,3,4-tetrahydro-pyrrolo[1,2-a]pyrazin-1-yl]-ethanone], the inhibition at 10 µM is -7.23%.

As to `COc1cc(C)c(S(=O)(=O)N2CCn3cccc3C2CC(=O)N(C)C(CN2CCOCC2)c2ccccc2)c(C)c1` (stereo not drawn) [Example 256, 2-[2-[(4-Methoxy-2,6-dimethyl-phenyl)sulfonyl]-1,2,3,4-tetrahydro-pyrrolo[1,2-a]pyrazin-1-yl]-N-methyl-N-(2-morpholin-4-yl-1-phenyl-ethyl)-acetamide], the inhibition at 10 µM turned out to be 5.54%.
